Experimental data published in US7988776B2, “Coloring composition, thermal transfer recording ink sheet, thermal transfer recording method, color toner, inkjet ink, color filter, and azo dye” (Fujifilm Corporation, priority 2007, dated 2011).

Experiments:
Format in all cases: physicochemical
[1] = Absorption spectrometry in ethyl acetate solution (maximum absorption wavelength); conditions: concentration 1×10^−6 mol/L, optical path length 10 mm
Method: The thus-obtained compounds (1), (2), (5) and (10) were analyzed absorption spectrometry in an ethyl acetate solution (concentration: 1×10^−6 mol/L, optical path length: 10 mm).

[2] = Light fastness of recorded images under Xe light; conditions: retention of status A reflection density 1.0 after Xe light (17000 lux) for 7 days
Method: Next, the recorded samples were exposed to an Xe light (17000 lux) for 7 days, and tested for the light stability (light fastness) of the recorded images. After the exposure, the status A reflection density of the part of each sample having an original status A reflection density of 1.0 before the exposure was measured, and the retention (by percentage) to the reflection density of 1.0 after exposure to that before exposure indicates the image stability. With the retention percentage, the samples were ranked in three, A (from 80% to less than 100%), B (from 60% to less than 80%), C (less than 60%).

[3] = Dye solubility in ink sheet construction; set-up: key: A (easily soluble); B (soluble); C (difficult to dissolve, but soluble); conditions: dye-donating layer-forming coating composition, methyl ethyl ketone/toluene (1/1)
Excerpt: A polyester film (Lumirror, trade name by Toray) having a thickness of 6.0 μm and processed for heat-resistant lubrication with a thermosetting acrylic resin (thickness 1 μm) on its back was used as a support.
The dye solubility was ranked in three, A (easily soluble), B (soluble) r C (difficult to dissolve, but soluble).

Maximum Absorption Wavelength [1]: 539 nm
Light Fastness [2]: A (A (from 80% to less than 100%))
Solubility [3]: A
SMILES: C=CCN(CC=C)c1ccc(/N=N/c2c(C#N)c(C(C)(C)C)nn2S(C)(=O)=O)c(NC(C)=O)c1 [(5)]
